# According to PubChem BioAssay (NCI):
#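 A five-concentration, 48-hour dose response in 96-well plates underlies each endpoint, interpolated linearly between surrounding concentrations. Abbreviation: GI50, concentration required for 50% inhibition of growth. TGI is the concentration that stops growth completely.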
# Test system: UACC-62 melanoma
# Assay: inhibition of tumour cell growth, NCI panel, 48 h
Compound,TGI,GI50
NC(N)=Nc1ccc(-c2ccc(N=C(N)N)cc2)cc1,> 100 µM,
O=C1c2cccnc2-c2nc(-c3ccccc3[N+](=O)[O-])cc3c2c1nc1ccccc13,40.9 µM,9.9 µM
CC(C)(C)c1cc(C(=O)/C=C/c2c(Cl)cccc2Cl)cc(C(C)(C)C)c1O,30.3 µM,
O=[N+]([O-])C(=C(Cl)Cl)C(Cl)=C(Cl)Cl,1.75 µM,
CC1=C(C(=O)OCCO[N+](=O)[O-])C(c2cccc([N+](=O)[O-])c2)C(C(=O)OC(C)C)=C(C)N1 (configuration not stated),30.2 µM,
CS(=O)(=O)OCCCCOS(=O)(=O)CF,> 100 µM,

# Test system: SF-539 CNS
# Assay: inhibition of tumour cell growth, NCI panel, 48 h
Compound,TGI,GI50
NC(N)=Nc1ccc(-c2ccc(N=C(N)N)cc2)cc1,74.7 µM,
O=C1c2cccnc2-c2nc(-c3ccccc3[N+](=O)[O-])cc3c2c1nc1ccccc13,24.3 µM,6.3 µM
CC(C)(C)c1cc(C(=O)/C=C/c2c(Cl)cccc2Cl)cc(C(C)(C)C)c1O,31.6 µM,
O=[N+]([O-])C(=C(Cl)Cl)C(Cl)=C(Cl)Cl,3.45 µM,
CC1=C(C(=O)OCCO[N+](=O)[O-])C(c2cccc([N+](=O)[O-])c2)C(C(=O)OC(C)C)=C(C)N1 (configuration not stated),30.5 µM,
CS(=O)(=O)OCCCCOS(=O)(=O)CF,> 100 µM,

# Test system: NCI-H23 lung
# Assay: inhibition of tumour cell growth, NCI panel, 48 h
Compound,TGI,GI50
NC(N)=Nc1ccc(-c2ccc(N=C(N)N)cc2)cc1,> 100 µM,
O=C1c2cccnc2-c2nc(-c3ccccc3[N+](=O)[O-])cc3c2c1nc1ccccc13,18.9 µM,3.67 µM
CC(C)(C)c1cc(C(=O)/C=C/c2c(Cl)cccc2Cl)cc(C(C)(C)C)c1O,48.9 µM,
O=[N+]([O-])C(=C(Cl)Cl)C(Cl)=C(Cl)Cl,1.96 µM,
CC1=C(C(=O)OCCO[N+](=O)[O-])C(c2cccc([N+](=O)[O-])c2)C(C(=O)OC(C)C)=C(C)N1 (configuration not stated),45.7 µM,
CS(=O)(=O)OCCCCOS(=O)(=O)CF,> 100 µM,

# Test system: RXF 393 renal
# Assay: inhibition of tumour cell growth, NCI panel, 48 h
Compound,TGI,GI50
NC(N)=Nc1ccc(-c2ccc(N=C(N)N)cc2)cc1,> 100 µM,
O=C1c2cccnc2-c2nc(-c3ccccc3[N+](=O)[O-])cc3c2c1nc1ccccc13,98.3 µM,20.7 µM
CC(C)(C)c1cc(C(=O)/C=C/c2c(Cl)cccc2Cl)cc(C(C)(C)C)c1O,14.9 µM,
O=[N+]([O-])C(=C(Cl)Cl)C(Cl)=C(Cl)Cl,0.091 µM,
CC1=C(C(=O)OCCO[N+](=O)[O-])C(c2cccc([N+](=O)[O-])c2)C(C(=O)OC(C)C)=C(C)N1 (configuration not stated),31.5 µM,
CS(=O)(=O)OCCCCOS(=O)(=O)CF,> 100 µM,

# Test system: MDA-MB-435
# Assay: inhibition of tumour cell growth, NCI panel, 48 h
Compound,TGI,GI50
NC(N)=Nc1ccc(-c2ccc(N=C(N)N)cc2)cc1,> 100 µM,
O=C1c2cccnc2-c2nc(-c3ccccc3[N+](=O)[O-])cc3c2c1nc1ccccc13,22.2 µM,7.1 µM
CC(C)(C)c1cc(C(=O)/C=C/c2c(Cl)cccc2Cl)cc(C(C)(C)C)c1O,54.4 µM,
O=[N+]([O-])C(=C(Cl)Cl)C(Cl)=C(Cl)Cl,1.07 µM,
CC1=C(C(=O)OCCO[N+](=O)[O-])C(c2cccc([N+](=O)[O-])c2)C(C(=O)OC(C)C)=C(C)N1 (configuration not stated),30.9 µM,
CS(=O)(=O)OCCCCOS(=O)(=O)CF,> 100 µM,

# Test system: OVCAR-4 ovarian
# Assay: inhibition of tumour cell growth, NCI panel, 48 h
Compound,TGI,GI50
NC(N)=Nc1ccc(-c2ccc(N=C(N)N)cc2)cc1,> 100 µM,
O=C1c2cccnc2-c2nc(-c3ccccc3[N+](=O)[O-])cc3c2c1nc1ccccc13,> 70.4 µM,6.63 µM
CC(C)(C)c1cc(C(=O)/C=C/c2c(Cl)cccc2Cl)cc(C(C)(C)C)c1O,> 100 µM,
O=[N+]([O-])C(=C(Cl)Cl)C(Cl)=C(Cl)Cl,0.482 µM,
CC1=C(C(=O)OCCO[N+](=O)[O-])C(c2cccc([N+](=O)[O-])c2)C(C(=O)OC(C)C)=C(C)N1 (configuration not stated),37.7 µM,
CS(=O)(=O)OCCCCOS(=O)(=O)CF,> 100 µM,

# Test system: SF-268 CNS
# Assay: inhibition of tumour cell growth, NCI panel, 48 h
Compound,TGI,GI50
NC(N)=Nc1ccc(-c2ccc(N=C(N)N)cc2)cc1,> 100 µM,
O=C1c2cccnc2-c2nc(-c3ccccc3[N+](=O)[O-])cc3c2c1nc1ccccc13,> 69.1 µM,6.39 µM
CC(C)(C)c1cc(C(=O)/C=C/c2c(Cl)cccc2Cl)cc(C(C)(C)C)c1O,> 58.9 µM,
O=[N+]([O-])C(=C(Cl)Cl)C(Cl)=C(Cl)Cl,4.92 µM,
CC1=C(C(=O)OCCO[N+](=O)[O-])C(c2cccc([N+](=O)[O-])c2)C(C(=O)OC(C)C)=C(C)N1 (configuration not stated),33 µM,
CS(=O)(=O)OCCCCOS(=O)(=O)CF,> 100 µM,

# Test system: HOP-62 NSCLC
# Assay: inhibition of tumour cell growth, NCI panel, 48 h
Compound,TGI,GI50
NC(N)=Nc1ccc(-c2ccc(N=C(N)N)cc2)cc1,> 100 µM,
O=C1c2cccnc2-c2nc(-c3ccccc3[N+](=O)[O-])cc3c2c1nc1ccccc13,41 µM,16 µM
CC(C)(C)c1cc(C(=O)/C=C/c2c(Cl)cccc2Cl)cc(C(C)(C)C)c1O,> 54.8 µM,
O=[N+]([O-])C(=C(Cl)Cl)C(Cl)=C(Cl)Cl,25.3 µM,
CC1=C(C(=O)OCCO[N+](=O)[O-])C(c2cccc([N+](=O)[O-])c2)C(C(=O)OC(C)C)=C(C)N1 (configuration not stated),30.9 µM,
CS(=O)(=O)OCCCCOS(=O)(=O)CF,> 100 µM,

# Test system: A549 NSCLC
# Assay: inhibition of tumour cell growth, NCI panel, 48 h
Compound,TGI,GI50
NC(N)=Nc1ccc(-c2ccc(N=C(N)N)cc2)cc1,> 100 µM,
O=C1c2cccnc2-c2nc(-c3ccccc3[N+](=O)[O-])cc3c2c1nc1ccccc13,30.1 µM,14.4 µM
CC(C)(C)c1cc(C(=O)/C=C/c2c(Cl)cccc2Cl)cc(C(C)(C)C)c1O,> 100 µM,
O=[N+]([O-])C(=C(Cl)Cl)C(Cl)=C(Cl)Cl,19.6 µM,
CC1=C(C(=O)OCCO[N+](=O)[O-])C(c2cccc([N+](=O)[O-])c2)C(C(=O)OC(C)C)=C(C)N1 (configuration not stated),37.4 µM,
CS(=O)(=O)OCCCCOS(=O)(=O)CF,> 100 µM,

# Test system: RPMI-8226 leukemia
# Assay: inhibition of tumour cell growth, NCI panel, 48 h
Compound,TGI,GI50
NC(N)=Nc1ccc(-c2ccc(N=C(N)N)cc2)cc1,66.3 µM,
O=C1c2cccnc2-c2nc(-c3ccccc3[N+](=O)[O-])cc3c2c1nc1ccccc13,> 100 µM,> 23.8 µM
CC(C)(C)c1cc(C(=O)/C=C/c2c(Cl)cccc2Cl)cc(C(C)(C)C)c1O,21.3 µM,
CC1=C(C(=O)OCCO[N+](=O)[O-])C(c2cccc([N+](=O)[O-])c2)C(C(=O)OC(C)C)=C(C)N1 (configuration not stated),> 100 µM,
CS(=O)(=O)OCCCCOS(=O)(=O)CF,> 100 µM,

# Test system: HS 578T breast
# Assay: inhibition of tumour cell growth, NCI panel, 48 h
Compound,TGI,GI50
NC(N)=Nc1ccc(-c2ccc(N=C(N)N)cc2)cc1,67.3 µM,
O=C1c2cccnc2-c2nc(-c3ccccc3[N+](=O)[O-])cc3c2c1nc1ccccc13,86.4 µM,31.2 µM
CC(C)(C)c1cc(C(=O)/C=C/c2c(Cl)cccc2Cl)cc(C(C)(C)C)c1O,> 84 µM,
O=[N+]([O-])C(=C(Cl)Cl)C(Cl)=C(Cl)Cl,3.29 µM,
CC1=C(C(=O)OCCO[N+](=O)[O-])C(c2cccc([N+](=O)[O-])c2)C(C(=O)OC(C)C)=C(C)N1 (configuration not stated),33.2 µM,
CS(=O)(=O)OCCCCOS(=O)(=O)CF,> 100 µM,

# Test system: SNB-75 CNS
# Assay: inhibition of tumour cell growth, NCI panel, 48 h
Compound,TGI,GI50
NC(N)=Nc1ccc(-c2ccc(N=C(N)N)cc2)cc1,86.1 µM,
O=C1c2cccnc2-c2nc(-c3ccccc3[N+](=O)[O-])cc3c2c1nc1ccccc13,52 µM,17.3 µM
CC(C)(C)c1cc(C(=O)/C=C/c2c(Cl)cccc2Cl)cc(C(C)(C)C)c1O,34.3 µM,
O=[N+]([O-])C(=C(Cl)Cl)C(Cl)=C(Cl)Cl,3.35 µM,
CS(=O)(=O)OCCCCOS(=O)(=O)CF,> 100 µM,

# Test system: UO-31 renal
# Assay: inhibition of tumour cell growth, NCI panel, 48 h
Compound,TGI,GI50
NC(N)=Nc1ccc(-c2ccc(N=C(N)N)cc2)cc1,> 100 µM,
O=C1c2cccnc2-c2nc(-c3ccccc3[N+](=O)[O-])cc3c2c1nc1ccccc13,32.5 µM,12.5 µM
CC(C)(C)c1cc(C(=O)/C=C/c2c(Cl)cccc2Cl)cc(C(C)(C)C)c1O,28.1 µM,
O=[N+]([O-])C(=C(Cl)Cl)C(Cl)=C(Cl)Cl,2.94 µM,
CC1=C(C(=O)OCCO[N+](=O)[O-])C(c2cccc([N+](=O)[O-])c2)C(C(=O)OC(C)C)=C(C)N1 (configuration not stated),28.1 µM,
CS(=O)(=O)OCCCCOS(=O)(=O)CF,> 100 µM,

# Test system: T-47D breast
# Assay: inhibition of tumour cell growth, NCI panel, 48 h
Compound,TGI,GI50
NC(N)=Nc1ccc(-c2ccc(N=C(N)N)cc2)cc1,> 100 µM,
O=C1c2cccnc2-c2nc(-c3ccccc3[N+](=O)[O-])cc3c2c1nc1ccccc13,> 100 µM,5.3 µM
CC(C)(C)c1cc(C(=O)/C=C/c2c(Cl)cccc2Cl)cc(C(C)(C)C)c1O,18 µM,
O=[N+]([O-])C(=C(Cl)Cl)C(Cl)=C(Cl)Cl,0.289 µM,
CC1=C(C(=O)OCCO[N+](=O)[O-])C(c2cccc([N+](=O)[O-])c2)C(C(=O)OC(C)C)=C(C)N1 (configuration not stated),53.6 µM,
CS(=O)(=O)OCCCCOS(=O)(=O)CF,> 100 µM,

# Test system: NCI/ADR-RES ovarian
# Assay: inhibition of tumour cell growth, NCI panel, 48 h
Compound,TGI,GI50
NC(N)=Nc1ccc(-c2ccc(N=C(N)N)cc2)cc1,> 100 µM,
O=C1c2cccnc2-c2nc(-c3ccccc3[N+](=O)[O-])cc3c2c1nc1ccccc13,> 69.3 µM,22.3 µM
CC(C)(C)c1cc(C(=O)/C=C/c2c(Cl)cccc2Cl)cc(C(C)(C)C)c1O,77.9 µM,
O=[N+]([O-])C(=C(Cl)Cl)C(Cl)=C(Cl)Cl,5.45 µM,
CC1=C(C(=O)OCCO[N+](=O)[O-])C(c2cccc([N+](=O)[O-])c2)C(C(=O)OC(C)C)=C(C)N1 (configuration not stated),34.3 µM,
